US20250213712A1, “ANTIBODY DRUG CONJUGATES COMPRISING CAMPTOTHECIN DERIVATIVES AND USES THEREOF” (priority 2023, published 2025)
Like-named read-outs stand apart in the source and are kept apart here.

Experiments:
Test in all cases: In vitro analysis of drugs (MTT cell viability)
SK-BR-3 cancer cells = assay type: cell-based; settings: read-out: IC50 ± SD (nM) SK-BR3 (Breast)
Protocol: (§1) The drugs (compounds D1-D6, D21, D25, D27, D28, D35-D37, D46, D47, D48, D49 and controls DXd, FL118 and SN38) were evaluated on NCI-N87, MDA-MB-468, SK-BR-3, HCT116, and JIMT-1 cancer cells. The cancer cells were seeded in 96-well plates at a density of 2,000 to 5,000 cells per well in 100 µL of medium and cultured for 22 to 26 hours. The series of compound was diluted by serial dilution of 1:4˜1:8 from 2 μM to 1 pM with DMSO. The diluted drugs were added to triplicate wells of 96-well plates at 50 μL per well. All assays were performed, by repeating up to 3 times and the results were obtained in up to 3 independent experiments. The plates were incubated for 6 days at 37° C. in a humidified 5% CO2-in-air atmosphere. Cell viability was determined by the MTT assay. The 15 μL of 3-(4,5-dimethylthiazol-2-yl)-2,5-diphenyltetrazolium bromide (MTT) dye dissolved in PBS buffer solution (5 mg/mL) was added to each well of the plates. The formazans formed by reduction of the MTT dye by mitochondrial oxidoreductases in the living cells were dissolved in DMSO, the formazans measured using the absorbance at 550 nm. IC50 (half maximal inhibitory concentration) was generated using a sigmoidal dose-response nonlinear regression curve fit (GraphPad software Inc.).

MDA-MB-468 cancer cells = assay type: cell-based; settings: read-out: IC50 ± SD (nM) MDA-MB-468 (TNBC)
Protocol: as §1

NCI-N87 cancer cells = assay type: cell-based, human; settings: read-out: IC50 ± SD (nM) NCI-N87 (Gastric)
Protocol: as §1

[1] = Homo sapiens, MDA-MB-468, 144 h
[2] = Drugs, expression level 21.8 × 10^5, 6 days, MTT
[3] = Drugs, expression level 0.003 × 10^5, 6 days, MTT
[4] = Drugs, expression level 13.2 × 10^5, 6 days, MTT

SMILES: CC[C@@]1(O)C(=O)OCc2c1cc1n(c2=O)Cc2c-1nc1cc(F)c(C)c3c1c2[C@@H](NC(=O)Cc1ccc(O)cc1)CC3 [Compound D49]
- IC50 (SK-BR-3 cancer cells; Homo sapiens, SK-BR-3, 144 h): 1.79 ± 0.24 nM
- IC50 (MDA-MB-468 cancer cells; [1]): 0.83 ± 0.01 nM
- IC50 (NCI-N87 cancer cells; Homo sapiens, NCI-N87, 144 h): 6.11 ± 0.19 nM

SMILES: CC[C@@]1(O)C(=O)OCc2c1cc1n(c2=O)Cc2c-1nc1cc3c(cc1c2-c1cccc(O)c1)OCO3 [Compound D36]
- IC50 (SK-BR-3 cancer cells; Homo sapiens, SK-BR-3, 144 h): 0.91 ± 0.13 nM
- IC50 (MDA-MB-468 cancer cells; [1]): 0.52 ± 0.29 nM
- IC50 (NCI-N87 cancer cells; Homo sapiens, NCI-N87, 144 h): 1.19 ± 0.02 nM

SMILES: CC[C@@]1(O)C(=O)OCc2c1cc1n(c2=O)Cc2c-1nc1cc(F)c(C)cc1c2-c1ccc(O)cc1 [Compound D37]
- IC50 (SK-BR-3 cancer cells; Homo sapiens, SK-BR-3, 144 h): 0.89 ± 0.06 nM
- IC50 (MDA-MB-468 cancer cells; [1]): 0.36 ± 0.23 nM
- IC50 (NCI-N87 cancer cells; Homo sapiens, NCI-N87, 144 h): 1.19 ± 0.25 nM

SMILES: CC[C@@]1(O)C(=O)OCc2c1cc1n(c2=O)Cc2c-1nc1cc3c(cc1c2-c1ccc(O)cc1)OCO3 [Compound D21]
- IC50 (SK-BR-3 cancer cells; Homo sapiens, SK-BR-3, 144 h): 0.61 ± 0.03 nM
- IC50 (MDA-MB-468 cancer cells; [1]): 0.38 ± 0.14 nM
- IC50 (NCI-N87 cancer cells; Homo sapiens, NCI-N87, 144 h): 1.49 ± 0.53 nM

SMILES: CCc1c2c(nc3ccc(O)cc13)-c1cc3c(c(=O)n1C2)COC(=O)[C@]3(O)CC [SN38, reference compound]
- IC50 (SK-BR-3 cancer cells; [2]): 1.82 ± 1.21 nM
- IC50 (MDA-MB-468 cancer cells; [3]): 0.68 ± 0.14 nM
- IC50 (NCI-N87 cancer cells; [4]): 6.52 ± 1.55 nM

SMILES: CC[C@@]1(O)C(=O)OCc2c1cc1n(c2=O)Cc2c-1nc1cc(F)c(O)c3c1c2C(O)CC3 (some centres unmarked) [Compound D25]
- IC50 (SK-BR-3 cancer cells; Homo sapiens, SK-BR-3, 144 h): 2.81 ± 0.43 nM
- IC50 (MDA-MB-468 cancer cells; [1]): 4.49 ± 0.76 nM
- IC50 (NCI-N87 cancer cells; Homo sapiens, NCI-N87, 144 h): 27.6 ± 8.26 nM

SMILES: CC[C@@]1(O)C(=O)OCc2c1cc1n(c2=O)Cc2c-1nc1cc3c(cc1c2CCc1ccc(O)cc1)OCO3 [Compound D35]
- IC50 (MDA-MB-468 cancer cells; [1]): 1.71 nM
- IC50 (NCI-N87 cancer cells; Homo sapiens, NCI-N87, 144 h): 5.57 nM

SMILES: CC[C@@]1(O)C(=O)OCc2c1cc1n(c2=O)Cc2c-1nc1cc(F)c(O)cc1c2-c1ccoc1 [Compound D28]
- IC50 (SK-BR-3 cancer cells; Homo sapiens, SK-BR-3, 144 h): 5.31 ± 0.55 nM
- IC50 (MDA-MB-468 cancer cells; [1]): 2.45 ± 0.37 nM
- IC50 (NCI-N87 cancer cells; Homo sapiens, NCI-N87, 144 h): 12.7 ± 4.2 nM

SMILES: CC[C@@]1(O)C(=O)OCc2c1cc1n(c2=O)Cc2cc3cc4c(cc3nc2-1)OCO4 [FL118, reference compound]
- IC50 (SK-BR-3 cancer cells; [2]): 0.86 ± 0.1 nM
- IC50 (MDA-MB-468 cancer cells; [3]): 0.37 ± 0.17 nM
- IC50 (NCI-N87 cancer cells; [4]): 1.04 ± 0.18 nM

SMILES: CC[C@@]1(O)C(=O)OCc2c1cc1n(c2=O)Cc2c-1nc1cc(F)c(C)c3c1c2[C@@H](NCc1ccc(O)cc1)CC3 [Compound D46]
- IC50 (SK-BR-3 cancer cells; Homo sapiens, SK-BR-3, 144 h): 1.73 ± 0.19 nM
- IC50 (MDA-MB-468 cancer cells; [1]): 0.92 ± 0.12 nM
- IC50 (NCI-N87 cancer cells; Homo sapiens, NCI-N87, 144 h): 2.2 ± 0.13 nM

SMILES: CC[C@@]1(O)C(=O)OCc2c1cc1n(c2=O)Cc2c-1nc1cc(F)c(C)c3c1c2[C@@H](NC(=O)CO)CC3 [DXd, reference compound]
- IC50 (SK-BR-3 cancer cells; [2]): 1.87 ± 0.49 nM
- IC50 (MDA-MB-468 cancer cells; [3]): 0.82 ± 0.3 nM
- IC50 (NCI-N87 cancer cells; [4]): 7.12 ± 1.75 nM

SMILES: CC[C@@]1(O)C(=O)OCc2c1cc1n(c2=O)Cc2c-1nc1cc(F)c(C)c3c1c2[C@@H](NCCc1ccc(O)cc1)CC3 [Compound D47]
- IC50 (SK-BR-3 cancer cells; Homo sapiens, SK-BR-3, 144 h): 1.8 nM
- IC50 (MDA-MB-468 cancer cells; [1]): 0.96 nM
- IC50 (NCI-N87 cancer cells; Homo sapiens, NCI-N87, 144 h): 2.13 nM

SMILES: CC[C@@]1(O)C(=O)OCc2c1cc1n(c2=O)Cc2c-1nc1cc(F)c(C)c3c1c2[C@@H](NC(=O)C(C)(O)C(F)(F)F)CC3 (some centres unmarked) [Compound D48]
- IC50 (SK-BR-3 cancer cells; Homo sapiens, SK-BR-3, 144 h): 1.06 ± 0.15 nM
- IC50 (MDA-MB-468 cancer cells; [1]): 0.4 ± 0.11 nM
- IC50 (NCI-N87 cancer cells; Homo sapiens, NCI-N87, 144 h): 1.59 ± 0.09 nM

SMILES: CC[C@@]1(O)C(=O)OCc2c1cc1n(c2=O)Cc2c-1nc1cc(F)c(O)cc1c2-c1ccco1 [Compound D27]
- IC50 (SK-BR-3 cancer cells; Homo sapiens, SK-BR-3, 144 h): 1.79 ± 0.34 nM
- IC50 (MDA-MB-468 cancer cells; [1]): 0.86 ± 0.11 nM
- IC50 (NCI-N87 cancer cells; Homo sapiens, NCI-N87, 144 h): 6.52 ± 0.45 nM
